The target of data set [1] is T1, C-X-C chemokine receptor type 4 (Homo sapiens, UniProt P61073). Nature of the data set: Displacement of 12G5 mAb from CXCR4 in human SUP-T1 cells incubated for 2 hrs by flow cytometry analysis. In kind it is cell-based. On the technique in general: In flow cytometry, cells or beads pass a laser one at a time.
For data set [2], the system named is Human immunodeficiency virus 1. Description: Antiviral activity against HIV-1 NL4-3 infected in human TZM-bl cells assessed as inhibition of viral replication preincubated for 15 mins followed by viral infection and measured after 4320 mins by beta-gal screening assay. In kind it is functional, organism-based. Particulars: Human immunodeficiency virus 1, NL4-3, TZM.

Data set [3] concerns the target T1, C-X-C chemokine receptor type 4. Nature of the data set: Antagonist activity at CXCR4 in human SUP-T1 cells assessed as inhibition of CXCL12-induced ERK phosphorylation preincubated with 15 mins followed by CXCL12 stimulation and measured after 12 mins by flow cytometry analysis. In kind it is functional, cell-based.
The next data set relates to SUP-T1. Description: Inhibition of cell migration in human SUP-T1 cells assessed as inhibition of CXCL12 mediated cell migration incubated for 4 hrs in presence of chemoattractant, CXCL12 by Transwell based CellTiter-Glo-chemotaxis assay. In kind it is functional.
A short description of data set [4]: Toxicity in Zebrafish embryo incubated for 24 hrs by microscopic analysis. Details: species or system Danio rerio. Conditions: in vivo.
In data set [5] the target is T1, C-X-C chemokine receptor type 4. Nature of the data set: Antagonist activity at CXCR4 (unknown origin) expressed in human HEK293T cells co-expressing SmBiT-beta-arrestin2 preincubated with compound for 10 mins followed by CXCL12 stimulation and measured for 120 mins by beta-arrestin2 recruitment based NanoBiT assay. In kind it is functional, cell-based. For orientation: Arrestin recruitment assays detect the binding of arrestin to an activated receptor.

Square brackets hold non-standard residues; d marks the D form. Peptide text beside a SMILES is read from it.

T1 sequence (P61073 whole entry): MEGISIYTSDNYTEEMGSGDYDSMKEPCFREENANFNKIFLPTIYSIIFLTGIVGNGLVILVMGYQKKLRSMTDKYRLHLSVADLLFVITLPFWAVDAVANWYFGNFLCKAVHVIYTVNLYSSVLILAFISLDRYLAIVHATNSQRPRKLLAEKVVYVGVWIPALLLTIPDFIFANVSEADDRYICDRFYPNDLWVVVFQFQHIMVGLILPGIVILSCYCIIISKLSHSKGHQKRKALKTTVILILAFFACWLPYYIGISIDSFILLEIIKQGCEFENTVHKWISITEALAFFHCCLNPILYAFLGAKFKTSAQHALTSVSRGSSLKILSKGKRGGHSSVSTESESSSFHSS

The term IC50 denotes the midpoint of a concentration-inhibition curve. `CC(C)C[C@H](NC(=O)[C@@H](N)C(C)C)C(=O)N[C@@H](CCCNC(=N)N)C(=O)N[C@@H](Cc1c[nH]c2ccccc12)C(=O)N[C@@H](CO)C(=O)N[C@@H](CCCNC(=N)N)C(=O)N[C@@H](CCCCN)C(=O)N[C@@H](CC(C)C)C(=O)N1CCC[C@H]1C(=O)N[C@@H](CS)C(=O)N[C@H](C(=O)N[C@@H](CO)C(=O)O)C(C)C`: the IC50 in data set [1] came to 298 nM; in data set [2] it was 214 nM; in data set [3], 4330 nM.
Take `CSCC[C@H](NC(=O)[C@H](CCCCN)NC(=O)[C@H](CCCNC(=N)N)NC(=O)[C@H](CO)NC(=O)[C@H](Cc1c[nH]c2ccccc12)NC(=O)[C@H](CCCNC(=N)N)NC(=O)[C@H](CC(C)C)NC(=O)[C@H](N)CC(C)C)C(=O)N1CCC[C@H]1C(=O)N[C@@H](CS)C(=O)N[C@H](C(=O)N[C@@H](CO)C(=O)O)C(C)C` (H-[dL]LRWSRKMPCVS-OH): the inhibition result with SUP-T1 is “Dose-Dependent Effect”. Also, the IC50 in data set [1] was 310 nM; in data set [2], 153 nM; in data set [5], 257 nM; in data set [3], 3660 nM. Further, in data set [4], the Activity entry is on record as “Non-Toxic”.
Consider `CC[C@@H](C)[C@@H](N)C(=O)N[C@@H](CC(C)C)C(=O)N[C@@H](CCCNC(=N)N)C(=O)N[C@@H](Cc1c[nH]c2ccccc12)C(=O)N[C@@H](CO)C(=O)N[C@@H](CCCNC(=N)N)C(=O)N[C@@H](CCCCN)C(=O)N[C@@H](CC(C)C)C(=O)N1CCC[C@H]1C(N)=O` (H-[dI]LRWSRKLP-NH2), for which the inhibition entry with SUP-T1 is “Dose-Dependent Effect”. The IC50 in data set [1] was found to be 453 nM; in data set [2], 551 nM; in data set [5], 118 nM; in data set [3] it was 4540 nM. In addition, the Activity entry in data set [4] is “Non-Toxic”.
Regarding `CSCC[C@H](NC(=O)[C@H](CCCCN)NC(=O)[C@H](CCCNC(=N)N)NC(=O)[C@H](CO)NC(=O)[C@H](Cc1c[nH]c2ccccc12)NC(=O)[C@H](CCCNC(=N)N)NC(=O)[C@H](CC(C)C)NC(=O)[C@H](N)Cc1ccccc1)C(=O)N1CCC[C@H]1C(=O)N[C@@H](CS)C(=O)N[C@H](C(=O)N[C@@H](CO)C(=O)O)C(C)C`, the IC50 is 1440 nM in data set [1], 817 nM in data set [2] and greater than 100000 nM in data set [3].
For the compound `CC[C@H](C)[C@H](N)C(=O)N[C@H](CC(C)C)C(=O)N[C@@H](CCCNC(=N)N)C(=O)N[C@@H](Cc1c[nH]c2ccccc12)C(=O)N[C@@H](CO)C(=O)N[C@@H](CCCNC(=N)N)C(=O)N[C@@H](CCCCN)C(=O)N[C@@H](CCSC)C(=O)N1CCC[C@H]1C(=O)N[C@@H](CS)C(=O)N[C@H](C(=O)N[C@@H](CO)C(=O)O)C(C)C`, the IC50 in data set [1] is 991 nM; in data set [2], 934 nM; in data set [3], greater than 100000 nM.
Turning to `CC[C@@H](C)[C@@H](NC(C)=O)C(=O)N[C@@H](CC(C)C)C(=O)N[C@@H](CCCNC(=N)N)C(=O)N[C@@H](Cc1c[nH]c2ccccc12)C(=O)N[C@@H](CO)C(=O)N[C@@H](CCCNC(=N)N)C(=O)N[C@@H](CCCCN)C(=O)N[C@@H](CC(C)C)C(=O)N1CCC[C@H]1C(=O)N[C@@H](CS)C(=O)N[C@H](C(=O)N[C@@H](CO)C(=O)O)C(C)C`, the IC50 in data set [1] was 7720 nM; in data set [2], greater than 10000 nM; in data set [3] it was 17200 nM.
For `CSCC[C@H](NC(=O)[C@H](CCCCN)NC(=O)[C@H](CCCNC(=N)N)NC(=O)[C@H](CO)NC(=O)[C@H](Cc1c[nH]c2ccccc12)NC(=O)[C@H](CCCNC(=N)N)NC(=O)[C@H](CC(C)C)NC(=O)[C@@H](CO)NC(C)=O)C(=O)N1CCC[C@H]1C(=O)N[C@@H](CS)C(=O)N[C@H](C(=O)N[C@@H](CO)C(=O)O)C(C)C`, in that order: 8620 nM, 775 nM and greater than 100000 nM.
As to `c1cc(CN2CCCNCCNCCCNCC2)ccc1CN1CCCNCCNCCCNCC1`, in the data set with SUP-T1, the inhibition result is “Dose-Dependent Effect”. Also, the IC50 in data set [2] was found to be 30 nM.
On to `CSCC[C@H](NC(=O)CN)C(=O)N[C@@H](CCCNC(=N)N)C(=O)N[C@@H](Cc1c[nH]c2ccccc12)C(=O)N[C@@H](CO)C(=O)N[C@@H](CCCNC(=N)N)C(=O)N[C@@H](CCCCN)C(=O)N[C@@H](CCSC)C(=O)N1CCC[C@H]1C(=O)N[C@@H](CS)C(=O)N[C@H](C(=O)N[C@@H](CO)C(=O)O)C(C)C` (H-GMRWSRKMPCVS-OH), for which the figures for the IC50 in data set [1], in data set [2] and in data set [3] were 8730 nM, 6670 nM and greater than 100000 nM, respectively.
Regarding `CC[C@H](C)[C@H](NC(C)=O)C(=O)N[C@@H](CC(C)C)C(=O)N[C@@H](CCCNC(=N)N)C(=O)N[C@@H](Cc1c[nH]c2ccccc12)C(=O)N[C@@H](CO)C(=O)N[C@@H](CCCNC(=N)N)C(=O)N[C@@H](CCCCN)C(=O)N[C@@H](CC(C)C)C(=O)N1CCC[C@H]1C(=O)N[C@@H](CS)C(=O)N[C@H](C(=O)N[C@@H](CO)C(=O)O)C(C)C`, the values for the IC50 in data set [1], in data set [2] and in data set [3] were 2660 nM, 1660 nM and 42100 nM, respectively.
In the same order, the values of `CC[C@H](C)[C@H](N)C(=O)N[C@H](CC(C)C)C(=O)N[C@@H](CCCNC(=N)N)C(=O)N[C@@H](Cc1c[nH]c2ccccc12)C(=O)N[C@@H](CO)C(=O)N[C@@H](CCCNC(=N)N)C(=O)N[C@@H](CCCCN)C(=O)N[C@@H](CC(C)C)C(=O)N1CCC[C@H]1C(=O)N[C@@H](CS)C(=O)N[C@H](C(=O)N[C@@H](CO)C(=O)O)C(C)C` are 1730 nM, 436 nM and greater than 100000 nM.
For the compound `CC(C)C[C@H](NC(=O)[C@H](N)C(C)C)C(=O)N[C@@H](CCCNC(=N)N)C(=O)N[C@@H](Cc1c[nH]c2ccccc12)C(=O)N[C@@H](CO)C(=O)N[C@@H](CCCNC(=N)N)C(=O)N[C@@H](CCCCN)C(=O)N[C@@H](CC(C)C)C(=O)N1CCC[C@H]1C(=O)N[C@@H](CS)C(=O)N[C@H](C(=O)N[C@@H](CO)C(=O)O)C(C)C`, the IC50 in data set [1] was 921 nM; in data set [2], 696 nM.
In the case of `CC(C)C[C@H](NC(=O)[C@@H](NC(=O)[C@@H]1CCCN1C(=O)[C@@H](NC(=O)[C@H](CO)NC(=O)[C@@H](NC(=O)[C@H](CCC(N)=O)NC(=O)[C@@H]1CCCN1C(=O)[C@@H](NC(=O)[C@H](CCCCN)NC(=O)[C@H](CCCCN)NC(=O)[C@@H](NC(=O)[C@H](Cc1ccc(O)cc1)NC(=O)[C@H](CCCNC(=N)N)NC(=O)[C@@H](NC(=O)[C@@H](N)CC(C)C)C(C)C)[C@@H](C)O)C(C)C)C(C)C)[C@@H](C)O)[C@@H](C)O)C(=O)O` (H-LVRYTKKVPQVSTPTL-OH), the IC50 is 2600 nM in data set [1], greater than 10000 nM in data set [2] and greater than 100000 nM in data set [3].
In the case of `CSCC[C@@H](NC(C)=O)C(=O)N[C@@H](CC(C)C)C(=O)N[C@@H](CCCNC(=N)N)C(=O)N[C@@H](Cc1c[nH]c2ccccc12)C(=O)N[C@@H](CO)C(=O)N[C@@H](CCCNC(=N)N)C(=O)N[C@@H](CCCCN)C(=O)N[C@@H](CC(C)C)C(=O)N1CCC[C@H]1C(=O)N[C@@H](CS)C(=O)N[C@H](C(=O)N[C@@H](CO)C(=O)O)C(C)C`, in data set [2], the half-maximal inhibitory concentration (IC50) was greater than 10000 nM.
Consider `CSCC[C@H](NC(=O)[C@H](CCCCN)NC(=O)[C@H](CCCNC(=N)N)NC(=O)[C@H](CO)NC(=O)[C@H](Cc1c[nH]c2ccccc12)NC(=O)[C@H](CCCNC(=N)N)NC(=O)[C@@H](CC(C)C)NC(=O)[C@@H](N)CCSC)C(=O)N1CCC[C@H]1C(=O)N[C@@H](CS)C(=O)N[C@H](C(=O)N[C@@H](CO)C(=O)O)C(C)C`, for which, in data set [1], the IC50 came to 824 nM.
For `CSCC[C@H](NC(=O)[C@H](N)Cc1ccccc1)C(=O)N[C@@H](CCCNC(=N)N)C(=O)N[C@@H](Cc1c[nH]c2ccccc12)C(=O)N[C@@H](CO)C(=O)N[C@@H](CCCNC(=N)N)C(=O)N[C@@H](CCCCN)C(=O)N[C@@H](CCSC)C(=O)N1CCC[C@H]1C(=O)N[C@@H](CS)C(=O)N[C@H](C(=O)N[C@@H](CO)C(=O)O)C(C)C`, the inhibition result in the data set on SUP-T1 was “Dose-Dependent Effect”. In addition, the IC50 in data set [1] is 1470 nM; in data set [2], 1690 nM; in data set [3], greater than 100000 nM.
As to `CSCC[C@H](NC(C)=O)C(=O)N[C@@H](CC(C)C)C(=O)N[C@@H](CCCNC(=N)N)C(=O)N[C@@H](Cc1c[nH]c2ccccc12)C(=O)N[C@@H](CO)C(=O)N[C@@H](CCCNC(=N)N)C(=O)N[C@@H](CCCCN)C(=O)N[C@@H](CC(C)C)C(=O)N1CCC[C@H]1C(=O)N[C@@H](CS)C(=O)N[C@H](C(=O)N[C@@H](CO)C(=O)O)C(C)C`, the IC50 in data set [2] is greater than 10000 nM.
Turning to `CSCC[C@H](NC(=O)[C@@H](N)CCSC)C(=O)N[C@@H](CCCNC(=N)N)C(=O)N[C@@H](Cc1c[nH]c2ccccc12)C(=O)N[C@@H](CO)C(=O)N[C@@H](CCCNC(=N)N)C(=O)N[C@@H](CCCCN)C(=O)N[C@@H](CCSC)C(=O)N1CCC[C@H]1C(=O)N[C@@H](CS)C(=O)N[C@H](C(=O)N[C@@H](CO)C(=O)O)C(C)C` (H-MMRWSRKMPCVS-OH), the IC50 worked out at 105 nM in data set [1], 129 nM in data set [2] and 7300 nM in data set [3].
As for `CSCC[C@H](NC(=O)[C@H](N)CC(C)C)C(=O)N[C@@H](CCCNC(=N)N)C(=O)N[C@@H](Cc1c[nH]c2ccccc12)C(=O)N[C@@H](CO)C(=O)N[C@@H](CCCNC(=N)N)C(=O)N[C@@H](CCCCN)C(=O)N[C@@H](CCSC)C(=O)N1CCC[C@H]1C(=O)N[C@@H](CS)C(=O)N[C@H](C(=O)N[C@@H](CO)C(=O)O)C(C)C` (H-[dL]MRWSRKMPCVS-OH), in the data set on SUP-T1, the inhibition entry is “Dose-Dependent Effect”. The Activity entry in data set [4] was “Non-Toxic”.
As to `CSCC[C@H](NC(=O)[C@H](CCCCN)NC(=O)[C@H](CCCNC(=N)N)NC(=O)[C@H](CO)NC(=O)[C@H](Cc1c[nH]c2ccccc12)NC(=O)[C@H](CCCNC(=N)N)NC(=O)[C@H](CC(C)C)NC(=O)[C@H](CO)NC(C)=O)C(=O)N1CCC[C@H]1C(=O)N[C@@H](CS)C(=O)N[C@H](C(=O)N[C@@H](CO)C(=O)O)C(C)C`, the IC50 is 16300 nM in data set [1], 4060 nM in data set [2] and greater than 100000 nM in data set [3].

The record behind these values is ChEMBL document CHEMBL5390277, “Development of N-Terminally Modified Variants of the CXCR4-Antagonistic Peptide EPI-X4 for Enhanced Plasma Stability” (J Med Chem, 2023).
